The target in assay [1] is DNA (cytosine-5)-methyltransferase 1 (Homo sapiens, UniProt P26358). The experiment in a line: DNMT1 methyltransferase inhibitors, confirmation, biochemical, fluorescent molecular beacon (AID 602386). In kind it is functional.
Assay [2] deals with T1, Probable nicotinate-nucleotide adenylyltransferase (Staphylococcus aureus (strain N315), UniProt P65502). The assay is classed as functional, Staphylococcus aureus subsp. aureus N315. The settings on record: read-out: IC50_Mean.
T1 sequence (P65502 whole entry): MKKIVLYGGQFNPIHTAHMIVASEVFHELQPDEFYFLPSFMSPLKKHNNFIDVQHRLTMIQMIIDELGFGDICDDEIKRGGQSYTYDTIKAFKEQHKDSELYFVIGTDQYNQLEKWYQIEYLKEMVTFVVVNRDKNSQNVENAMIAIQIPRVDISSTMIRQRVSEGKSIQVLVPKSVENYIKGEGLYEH
For assay [3], the target named is Kallikrein-7 (Homo sapiens, UniProt P49862). The experiment in a line: Fluorescence Intensity-based biochemical primary high throughput dose response assay to identify activators of kallikrein-7 (K7) zymogen.
Kallikrein-7, sequence (P49862 whole entry): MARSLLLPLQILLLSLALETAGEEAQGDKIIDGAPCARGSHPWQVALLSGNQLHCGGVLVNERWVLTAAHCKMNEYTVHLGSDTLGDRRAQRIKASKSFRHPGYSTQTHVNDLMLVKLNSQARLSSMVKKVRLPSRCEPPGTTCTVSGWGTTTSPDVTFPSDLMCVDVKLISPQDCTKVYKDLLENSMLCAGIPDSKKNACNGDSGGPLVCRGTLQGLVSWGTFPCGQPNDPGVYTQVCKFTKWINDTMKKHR
For assay [4], the target named is Albumin (Bos taurus, UniProt P02769). The experiment in a line: Counterscreen for inhibitors of T-cell receptor (TCR)-CD3 interaction: Fluorescence-based biochemical high throughput dose response assay to identify inhibitors of T-cell receptor (TCR)-CD3 interaction using a TAMRA-labeled BSA probe. In kind it is functional. A general note: Counterscreens check selectivity or assay interference.

Assay [5] addresses T1, Probable nicotinate-nucleotide adenylyltransferase. The assay is classed as functional, Staphylococcus aureus subsp. aureus N315.
Assay [6] in a line: A Cell Based Secondary Assay to Explore Cytotoxicity in HepG2 Cells of Compounds that Modulate Mycobacterium tuberculosis in Media Containing Glycerol versus Media without Glycerol (2). In kind it is functional.
Assay [7] can be described thus: A Cell Based Secondary Assay to Explore Cytotoxicity in THP-1 Cells of Compounds that Modulate Mycobacterium tuberculosis in Media Containing Glycerol versus Media without Glycerol (2). The assay is classed as functional.
The target of assay [8] is Neurotensin receptor type 1 (Homo sapiens, UniProt P30989). The assay is classed as functional.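 Also: Image-based confirmatory dose-response assay measuring agonist activity at NTR1; NTR1-expressing U2OS osteosarcoma cells imaged for beta-arrestin GFP spot formation; agonist potency where compounds increase beta-arrestin recruitment.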
Neurotensin receptor type 1, sequence (P30989 whole entry): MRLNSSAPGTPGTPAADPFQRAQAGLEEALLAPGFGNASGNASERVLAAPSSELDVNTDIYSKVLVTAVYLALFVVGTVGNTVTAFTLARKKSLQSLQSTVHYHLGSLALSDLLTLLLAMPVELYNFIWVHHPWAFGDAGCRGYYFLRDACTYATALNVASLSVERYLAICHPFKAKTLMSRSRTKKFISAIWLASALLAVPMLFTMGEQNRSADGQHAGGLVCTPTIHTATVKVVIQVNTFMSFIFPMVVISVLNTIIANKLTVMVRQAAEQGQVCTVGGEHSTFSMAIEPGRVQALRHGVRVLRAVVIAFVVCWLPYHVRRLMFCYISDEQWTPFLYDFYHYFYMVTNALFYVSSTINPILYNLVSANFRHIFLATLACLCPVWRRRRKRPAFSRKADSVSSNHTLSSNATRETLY
The nature of assay [9]: microbe, parasite or virus in culture. In kind it is functional. To be noted: Mycobacterium tuberculosis.
The nature of assay [10]: Vero cell cytotoxicity, cytotoxicity control for M. tuberculosis inhibitor project, purified and synthesized samples, set 3 (AID 504684). The assay is classed as functional. To be noted: […].
Assay [11] concerns the target Hepatocyte nuclear factor 4-alpha (Homo sapiens, UniProt P41235). The assay is classed as functional, cell-based.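 Also: biochemical luminescence-based dose-response counterscreen measuring inhibition of HNF4 dimerization, run alongside a screen for blockers of ABHD5–perilipin-5 interaction; split luciferase complementation of HNF4 fusion proteins in cell lysate measuring dimerization.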
Assay [12] addresses Heat shock protein HSP 90-alpha (Homo sapiens, UniProt P07900). In kind it is functional, organism-based.
Assay [13] in a line: Luminescence Cell-Based Dose Confirmation HTS to Identify Activators of 5'UTR Stem-Loop Driven Alpha-Synuclein mRNA Translation in H4 Neuroglioblastoma Cells. [Related pubchem assays: 1829 (Project Summary), 1814 (Primary HTS)]. The assay is classed as functional.
For assay [14], the target named is SWI/SNF-related matrix-associated actin-dependent regulator of chromatin subfamily A member 2 (Homo sapiens, UniProt P51531). The experiment in a line: Luminescence-based cell-based high throughput dose response assay to identify activators of the function of SWI/SNF related, matrix associated, actin dependent regulator of chromatin, subfamily a, member 2 (SMARCA2, BRM). The assay is classed as functional.

Assay [15] is described as follows: Counterscreen for activators of the function of SWI/SNF related, matrix associated, actin dependent regulator of chromatin, subfamily a, member 2 (SMARCA2, BRM): Luminescence-based cell-based high throughput dose response assay to identify non-selective compounds using the VP16 reporter assay. In kind it is functional.
The nature of assay [16]: Luminescence Cell-Based Dose Response HTS to Identify Activators of Luciferase Translation or Activity in H4 […] Cells. [Related pubchem assays: 1829 (Project Summary), 1814 (Primary HTS)]. The assay is classed as functional.
In assay [17] the test system is H4. In words: Luminescence Cell-Based Dose Response HTS to Identify Activators of 5'UTR Stem-Loop Driven Prion Protein mRNA Translation in H4 Neuroglioblastoma Cells. [Related pubchem assays: 1829 (Project Summary), 1814 (Primary HTS)]. In kind it is functional. To be noted: Homo sapiens.
For assay [18], the target named is T2, DNA repair protein RAD52 homolog (Homo sapiens, UniProt P43351).
T2 sequence (P43351 whole entry): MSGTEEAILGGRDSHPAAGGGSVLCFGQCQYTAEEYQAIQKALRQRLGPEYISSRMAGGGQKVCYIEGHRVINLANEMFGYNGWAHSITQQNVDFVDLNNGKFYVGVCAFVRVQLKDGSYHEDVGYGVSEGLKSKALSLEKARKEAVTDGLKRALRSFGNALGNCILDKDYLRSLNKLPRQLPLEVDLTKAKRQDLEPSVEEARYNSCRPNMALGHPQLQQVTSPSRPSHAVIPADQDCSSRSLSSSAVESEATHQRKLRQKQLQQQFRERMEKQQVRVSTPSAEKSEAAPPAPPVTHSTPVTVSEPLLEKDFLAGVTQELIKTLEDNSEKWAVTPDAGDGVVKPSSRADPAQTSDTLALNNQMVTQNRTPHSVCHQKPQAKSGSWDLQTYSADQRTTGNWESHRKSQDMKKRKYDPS
In kind it is functional, biochemical.

The target of assay [19] is T3, DNA repair and recombination protein RAD54-like (Homo sapiens, UniProt Q92698).
T3 sequence (Q92698 whole entry): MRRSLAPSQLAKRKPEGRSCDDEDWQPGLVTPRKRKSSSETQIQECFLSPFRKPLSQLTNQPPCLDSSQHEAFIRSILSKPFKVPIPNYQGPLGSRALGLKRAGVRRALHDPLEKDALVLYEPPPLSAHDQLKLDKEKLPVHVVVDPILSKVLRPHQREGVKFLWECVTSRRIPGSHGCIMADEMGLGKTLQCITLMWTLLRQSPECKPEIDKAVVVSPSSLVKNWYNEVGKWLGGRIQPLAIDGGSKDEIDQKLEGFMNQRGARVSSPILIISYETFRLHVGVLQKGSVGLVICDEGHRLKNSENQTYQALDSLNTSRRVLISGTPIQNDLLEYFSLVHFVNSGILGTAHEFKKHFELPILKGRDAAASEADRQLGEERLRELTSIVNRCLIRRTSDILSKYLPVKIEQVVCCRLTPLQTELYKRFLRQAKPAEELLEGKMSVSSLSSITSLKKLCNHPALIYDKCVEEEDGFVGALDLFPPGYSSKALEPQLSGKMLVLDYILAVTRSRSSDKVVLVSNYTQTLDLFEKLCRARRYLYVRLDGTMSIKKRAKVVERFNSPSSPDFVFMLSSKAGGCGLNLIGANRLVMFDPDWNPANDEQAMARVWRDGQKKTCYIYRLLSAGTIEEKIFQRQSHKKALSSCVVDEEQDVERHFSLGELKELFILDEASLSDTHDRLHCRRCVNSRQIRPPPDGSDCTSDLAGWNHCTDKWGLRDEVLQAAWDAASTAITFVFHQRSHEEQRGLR
In words: inhibitors of human RAD54 branch migration, confirmation, biochemical, fluorescence, cherry-picked samples, dose series (AID 651657). In kind it is functional.

Assay [20] can be described thus: DNA binding of candidate compounds, dose response, artefact control for RAD54 inhibitor project, biochemical, fluorescence polarization, cherry-pick (AID 651673). In kind it is functional. In general terms: In fluorescence polarisation assays a small probe gives low polarisation when free and higher when bound to something large.
The target in assay [21] is Beta-galactosidase (Escherichia coli, UniProt Q8VNN2). In words: beta-galactosidase enzyme inhibitors and activators, dose response, artefact control for CCR6 antagonist project, biochemical, E. coli enzyme, set 3 (AID 504712). In kind it is functional.
Beta-galactosidase, sequence (Q8VNN2 whole entry): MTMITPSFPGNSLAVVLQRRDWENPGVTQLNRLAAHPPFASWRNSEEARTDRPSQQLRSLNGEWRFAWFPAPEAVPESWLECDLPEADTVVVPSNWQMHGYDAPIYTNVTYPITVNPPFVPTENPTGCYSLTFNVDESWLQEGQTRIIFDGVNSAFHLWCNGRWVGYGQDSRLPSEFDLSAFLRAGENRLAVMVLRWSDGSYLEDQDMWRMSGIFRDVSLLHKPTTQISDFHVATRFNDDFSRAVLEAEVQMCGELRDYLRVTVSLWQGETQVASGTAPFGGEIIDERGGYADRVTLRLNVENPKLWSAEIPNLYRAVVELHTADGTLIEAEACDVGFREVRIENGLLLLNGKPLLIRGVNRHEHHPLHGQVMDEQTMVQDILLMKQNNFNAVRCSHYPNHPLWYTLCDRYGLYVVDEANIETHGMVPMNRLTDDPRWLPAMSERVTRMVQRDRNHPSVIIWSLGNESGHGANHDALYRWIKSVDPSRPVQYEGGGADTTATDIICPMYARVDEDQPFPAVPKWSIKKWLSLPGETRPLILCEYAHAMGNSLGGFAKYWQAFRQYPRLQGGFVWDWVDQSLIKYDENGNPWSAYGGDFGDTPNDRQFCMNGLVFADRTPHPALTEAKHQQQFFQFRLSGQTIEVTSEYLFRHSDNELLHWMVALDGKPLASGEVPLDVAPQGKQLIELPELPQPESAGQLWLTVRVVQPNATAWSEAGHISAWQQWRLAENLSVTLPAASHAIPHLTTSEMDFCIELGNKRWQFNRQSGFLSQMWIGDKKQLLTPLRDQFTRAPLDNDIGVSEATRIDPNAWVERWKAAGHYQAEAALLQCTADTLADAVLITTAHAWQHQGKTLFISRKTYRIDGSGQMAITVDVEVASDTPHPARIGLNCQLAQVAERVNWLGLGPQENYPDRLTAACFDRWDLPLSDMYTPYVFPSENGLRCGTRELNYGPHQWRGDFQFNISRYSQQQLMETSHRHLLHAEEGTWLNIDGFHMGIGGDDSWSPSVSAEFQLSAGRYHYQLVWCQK
Assay [22] deals with Beta Lactamase (Pseudomonas aeruginosa, UniProt Q932Y6). The experiment in a line: beta-lactamase reporter inhibitor potency, dose response, artefact control for NOD2-RIPK2 interaction inhibitor project, BLA reporter cells, FRET fluorescence (AID 651552). In kind it is functional, cell-based.
Beta Lactamase, sequence (Q932Y6 whole entry, the tested form may be a part): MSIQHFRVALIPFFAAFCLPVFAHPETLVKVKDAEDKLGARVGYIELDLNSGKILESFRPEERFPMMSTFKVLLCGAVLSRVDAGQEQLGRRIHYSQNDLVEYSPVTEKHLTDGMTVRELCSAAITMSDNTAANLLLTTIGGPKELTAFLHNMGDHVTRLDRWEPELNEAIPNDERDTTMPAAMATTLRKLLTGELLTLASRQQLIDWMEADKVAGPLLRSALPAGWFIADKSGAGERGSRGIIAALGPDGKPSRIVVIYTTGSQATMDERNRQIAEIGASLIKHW
The nature of assay [23]: Fluorescence-based cell-based high throughput dose response assay for inhibitors of the interaction of nucleotide-binding oligomerization domain containing 2 (NOD2) and the receptor-interacting serine-threonine kinase 2 (RIPK2). The assay is classed as functional. The settings on record: Homo sapiens.
Assay [24] is described as follows: control 3'UTR Renilla luciferase suppression, dose response, counter-screen for Shn3 inhibitor project, cell-based, Clone20-Shn3RL, cherry-picked (AID 624133). The assay is classed as functional.
For assay [25], the system named is HEK293. The experiment in a line: cells. To be noted: Homo sapiens.
A short description of assay [26]: HepG2 cell cytotoxicity, dose response, cytotoxicity control for Shn3 inhibitor project, CellTiter-Glo, cherry-picked (AID 624134). The assay is classed as functional, cell-based.
Assay [27] has as its target Paired box protein Pax-8 (Homo sapiens, UniProt Q06710). The experiment in a line: inhibitors of PAX8-driven TPO luciferase reporter, dose response, RMG-I cells, cherry-pick (AID 687027).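 Also: luciferase reporter driven by Pax8 target thyroperoxidase promoter measured by SteadyGlo luminescence.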 In kind it is functional, cell-based.
A short description of assay [28]: Shn3 3'UTR reporter inhibitors, dose response, cell-based, Clone20 osteoblasts, firefly luciferase, cherry-picked (AID 624132).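 Also: firefly luciferase luminescence from reporter carrying the Shn3 3'UTR in osteoblasts.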 The assay is classed as functional.
The test system of assay [29] is HEK293. In words: cells. The settings on record: Homo sapiens. The source holds these as a separate data set.
Assay [30] is described as follows: non-specific cell cytotoxicity, dose response, cytotoxicity control for PAX8 inhibitor project, plate reader, dry powder samples (AID 743021). The assay is classed as functional, cell-based.
The nature of assay [31]: Artemis endonuclease inhibitor potency, dose response, biochemical, fluorescence intensity (AID 720701).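 Also: Artemis endonuclease enzyme.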 The assay is classed as functional.
Assay [32] in a line: AlphaScreen signal interference compounds, dose response, artefact control for ARNT-TACC3 interaction inhibitor project, biochemical, luminescence, cherry-pick (AID 651705).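 Also: AlphaScreen bead proximity signal that flags compounds interfering with the detection technology; potency reflects signal decrease which marks the compound as an assay artifact.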 In kind it is functional. (Bead proximity is the source of the signal in Alpha formats.)

Active and inactive are the calls of the source. Where only a bound is given, the exact number is not on record here.
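For IC50 Mean in this document: confirmatory dose-response retesting of NadD inhibitor hits first found in an ultra-high-throughput screen.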

DNA (cytosine-5)-methyltransferase 1, sequence (P26358 whole entry): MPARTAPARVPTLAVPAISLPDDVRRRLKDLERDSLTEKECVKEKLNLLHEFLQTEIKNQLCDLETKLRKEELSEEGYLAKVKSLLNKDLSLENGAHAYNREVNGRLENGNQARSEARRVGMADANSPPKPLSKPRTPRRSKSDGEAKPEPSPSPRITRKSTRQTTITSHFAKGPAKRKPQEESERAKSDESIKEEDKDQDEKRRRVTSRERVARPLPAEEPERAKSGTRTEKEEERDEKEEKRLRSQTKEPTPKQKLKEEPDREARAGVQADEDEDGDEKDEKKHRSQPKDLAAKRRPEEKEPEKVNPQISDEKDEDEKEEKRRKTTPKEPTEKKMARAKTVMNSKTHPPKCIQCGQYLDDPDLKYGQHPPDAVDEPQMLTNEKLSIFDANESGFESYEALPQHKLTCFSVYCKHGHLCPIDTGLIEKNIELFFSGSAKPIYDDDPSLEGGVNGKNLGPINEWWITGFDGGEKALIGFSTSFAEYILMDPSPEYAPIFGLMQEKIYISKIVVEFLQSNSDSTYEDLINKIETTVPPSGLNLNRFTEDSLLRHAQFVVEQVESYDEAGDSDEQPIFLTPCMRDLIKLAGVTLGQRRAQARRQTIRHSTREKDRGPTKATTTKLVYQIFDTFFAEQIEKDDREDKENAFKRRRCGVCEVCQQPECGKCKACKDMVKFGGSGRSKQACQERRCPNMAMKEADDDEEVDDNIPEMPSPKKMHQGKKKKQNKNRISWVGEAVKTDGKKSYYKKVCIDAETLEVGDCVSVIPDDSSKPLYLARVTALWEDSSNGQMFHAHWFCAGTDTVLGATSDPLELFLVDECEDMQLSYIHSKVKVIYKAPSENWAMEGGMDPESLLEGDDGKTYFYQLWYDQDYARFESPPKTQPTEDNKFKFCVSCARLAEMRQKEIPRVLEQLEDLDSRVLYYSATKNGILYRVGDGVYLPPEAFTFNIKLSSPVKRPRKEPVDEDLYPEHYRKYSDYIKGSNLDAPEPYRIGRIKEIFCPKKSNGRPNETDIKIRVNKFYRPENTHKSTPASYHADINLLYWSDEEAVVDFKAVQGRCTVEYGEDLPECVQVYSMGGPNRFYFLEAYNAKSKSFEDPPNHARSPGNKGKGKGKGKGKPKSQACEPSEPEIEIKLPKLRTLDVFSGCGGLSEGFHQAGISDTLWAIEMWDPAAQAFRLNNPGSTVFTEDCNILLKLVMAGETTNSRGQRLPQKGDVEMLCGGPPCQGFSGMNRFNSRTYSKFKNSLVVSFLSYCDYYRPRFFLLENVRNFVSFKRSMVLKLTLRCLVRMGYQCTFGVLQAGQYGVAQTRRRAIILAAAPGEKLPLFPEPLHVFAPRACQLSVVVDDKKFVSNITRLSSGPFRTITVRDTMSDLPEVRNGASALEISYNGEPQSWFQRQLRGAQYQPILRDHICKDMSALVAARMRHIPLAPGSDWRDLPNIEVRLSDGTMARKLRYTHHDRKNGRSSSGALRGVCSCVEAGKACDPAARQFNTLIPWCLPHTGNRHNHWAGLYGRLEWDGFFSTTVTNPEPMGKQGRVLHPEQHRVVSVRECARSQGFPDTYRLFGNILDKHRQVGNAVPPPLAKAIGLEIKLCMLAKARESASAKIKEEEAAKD
Paired box protein Pax-8, sequence (Q06710 whole entry): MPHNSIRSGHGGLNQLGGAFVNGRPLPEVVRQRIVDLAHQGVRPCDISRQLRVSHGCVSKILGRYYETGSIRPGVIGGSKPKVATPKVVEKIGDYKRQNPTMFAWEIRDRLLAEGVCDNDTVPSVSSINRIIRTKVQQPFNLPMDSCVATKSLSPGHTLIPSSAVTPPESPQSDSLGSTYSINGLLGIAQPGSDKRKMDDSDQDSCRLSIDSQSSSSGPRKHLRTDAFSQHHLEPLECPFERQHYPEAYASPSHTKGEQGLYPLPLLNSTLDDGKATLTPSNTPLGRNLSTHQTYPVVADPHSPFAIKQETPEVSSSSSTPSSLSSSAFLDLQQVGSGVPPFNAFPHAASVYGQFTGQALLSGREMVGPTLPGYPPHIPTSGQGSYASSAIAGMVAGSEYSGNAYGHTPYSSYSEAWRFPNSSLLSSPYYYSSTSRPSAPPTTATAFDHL
Hepatocyte nuclear factor 4-alpha, sequence (P41235 whole entry, the tested form may be a part): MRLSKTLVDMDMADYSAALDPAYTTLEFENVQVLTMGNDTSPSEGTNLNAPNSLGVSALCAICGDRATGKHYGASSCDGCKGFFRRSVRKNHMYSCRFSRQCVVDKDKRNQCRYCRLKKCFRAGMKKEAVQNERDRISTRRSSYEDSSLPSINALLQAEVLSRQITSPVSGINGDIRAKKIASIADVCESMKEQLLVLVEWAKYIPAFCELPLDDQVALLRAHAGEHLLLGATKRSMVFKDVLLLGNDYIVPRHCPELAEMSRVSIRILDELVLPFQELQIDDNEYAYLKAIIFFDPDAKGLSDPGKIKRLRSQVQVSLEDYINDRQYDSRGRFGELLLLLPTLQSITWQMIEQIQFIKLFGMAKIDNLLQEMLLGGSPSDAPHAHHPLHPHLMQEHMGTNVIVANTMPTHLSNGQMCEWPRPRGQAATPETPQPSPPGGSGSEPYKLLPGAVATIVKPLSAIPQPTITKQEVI

Consider `COC(=O)C1CCN(C(=O)c2cc(-c3ccco3)nc3ccccc23)CC1`, for which the IC50 is 7.31 µM (active) in assay [1], 44.6 µM (active) in [2], > 94.1 µM (inactive) in assay [4] and 18.8 µM (active) in [5]. Further, in [3], the EC50 is > 69.5 µM (inactive).

With `COC(=O)c1cc(=O)n(-c2ccc(F)cc2)/c(=N/c2ccc(F)cc2)s1`, the CC50 in [6] is 24.1 µM (active); in assay [7] it was 21.5 µM (active); in [9] it was 13.9 µM (active); in assay [10], 12.9 µM (active). The concentration for a half-maximal effect (EC50) in assay [8] was 11.1 µM (active). Besides, the IC50 in assay [11] is 4.1 µM (active). Further, the half-maximal activity concentration (AC50) in assay [12] was 8.18 µM (active).

On to `CCN(CC)CCn1c2ccccc2c2nc3ccccc3nc21`, for which the EC50 was 31.8 µM (active) in assay [13]; 10.1 µM (inactive) in assay [14]; > 91.1 µM (inactive) in assay [15]; 15.1 µM (active) in assay [16]; 29.6 µM (active) in assay [17]. Further, the AC50 in assay [18] is 3.27 µM (active); in assay [19], 7.12 µM (active); in assay [20], 64 µM (active).

As to `C=C1CC(Cn2cc(Br)c(=O)[nH]c2=O)(c2ccc(-c3ccccc3)cc2)OC1=O` (configuration not stated), the IC50 in assay [21] was > 66.6 µM (inactive); in assay [22], 12.2 µM (inactive); in [23], 2.2 µM (active). The AC50 in assay [24] was 4.16 µM (active); in assay [26], 13.6 µM (active); in assay [27], 6.49 µM (active); in assay [28] it was 2.67 µM (active); in assay [30] it was 55.6 µM (active). Further, the EC50 in assay [25] and in [29] was > 59.7 µM (inactive) each time.

Consider `Cc1ccc(Nc2nc(N)nc(CN3CCCCCC3)n2)cc1`, for which, in [31], the IC50 is > 20 µM (inactive). In addition, in [32], the AC50 was 117 µM (active).

A word on the EC50: it is the midpoint of the concentration-response curve. By AC50 is commonly meant the midpoint of the concentration-response curve, whichever way the signal moves.

The values above are taken from ChEMBL document CHEMBL1201862, “PubChem BioAssay data set” (2004).
